These results are taken from US20190119200A1, “TERTIARY AMIDES AND METHOD OF USE” (AbbVie Inc., priority 2016, published 2019).

Molecules are shown by their SMILES.

For orientation: IC50 means the concentration that gives 50% inhibition.

Holding throughout (assay type): cell-based
For assay [1], the target named is T1, LPAR1 (Homo sapiens, UniProt Q92633).
T1 construct: host or cells: U2OS
The assay can be described thus: LPAR1 FLIPR Assay. To be noted: U2OS cells stably expressing LPAR1, LPA (EC80), Calcium 6 FLIPR dye; for Emax: read-out: Maximum Inhibition. In short, it runs like this: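 Calcium flux read-out (515-575 nm, FLIPR) in LPAR1-expressing U2OS cells after LPA challenge at EC80, given 3 min after compound addition; cells carried Calcium 6 dye loaded 2 h at 37° C. Eleven-point 3-fold dilutions were fitted with a four-parameter Hill equation for IC50.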

Assay [2] relates to LPA-induced MCP-1 in NRK-49F cells. The assay can be described thus: LPA-induced MCP-1 AlphaLISA assay. The conditions noted are these: Rattus norvegicus, final LPA 10 μM, 7 hours; for Emax: read-out: Maximum Inhibition. In outline: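 NRK-49F rat fibroblasts, serum-starved overnight, pretreated with compound for 30 min at 37 °C (1% DMSO final), then stimulated with 10 μM LPA final. MCP-1 in the supernatant was measured by mouse/rat CCL2 AlphaLISA. IC50 values came from four-parameter logistic fits of the ratio data.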
A general note: In Alpha technology, singlet oxygen from a donor bead excites a nearby acceptor bead.

For assay [3], the target named is T1, LPAR1. The assay can be described thus: IP-One HTRF Assay. To be noted: U2OS cells stably expressing LPAR1, LPA stimulation, IP-One Tb HTRF kit; for Emax: read-out: Maximum Inhibition. On the procedure: U2OS cells stably expressing LPAR1 (Life Technologies #K1519A) were plated at 20000 cells/well in growth medium (McCoy's 5A(Life Technologies #16600-082)) with 10% dFBS (Life Technologies #26400-036), 0.1 mM non-essential amino acids, 25 mM HEPES, 1 mM sodium pyruvate, 1% penicillin/streptomycin, 50 μg/mL hygromycin, and 100 μg/mL Geneticin® in tissue culture treated 384-well white plates (Greiner #781080) in humidified 5% CO2 at 37° C. overnight. On the day of the assay, culture medium was replaced with 30 μL/well of McCoy's 5A with 0.1% BSA. Cells were incubated in humidified 5% CO2 at 37° C. for 3 more hours. Compounds were 3-fold serial diluted from 2 mM for 11-points using dimethyl sulfoxide. 1 μL of compound in DMSO was diluted in 50 μL stimulation buffer from an IP-One Tb HTRF kit (Cisbio #62IPAPEB) immediately before assay. 15 μL/well of 1.33× compound in stimulation buffer was added to cells after removal of culture medium. After 20 minutes of incubation at 37° C., 5 μL/well of 8 μM LPA diluted in stimulation buffer with 0.1% fatty acid free BSA was added to cells. […]. To EC100 wells were added 4×20 μM LPA. To the cells were added 5 μL/well IP1-d2 conjugate and 5 μLwell IP1-K antibody after 2 hours of incubation at 37° C. Cells were incubated at room temperature for 1 hour (protected from light). The plate was then read at 665 nm and 615 nm using an EnVision® Multilabel Plate Reader. IC50 values were calculated from curve fits of the ratio data using a four-parameter logistic Hill equation (Assay Explorer 3.3 Client).
In general terms: In TR-FRET formats the signal depends on donor and acceptor labels being close together.

T1 sequence (Q92633 whole entry): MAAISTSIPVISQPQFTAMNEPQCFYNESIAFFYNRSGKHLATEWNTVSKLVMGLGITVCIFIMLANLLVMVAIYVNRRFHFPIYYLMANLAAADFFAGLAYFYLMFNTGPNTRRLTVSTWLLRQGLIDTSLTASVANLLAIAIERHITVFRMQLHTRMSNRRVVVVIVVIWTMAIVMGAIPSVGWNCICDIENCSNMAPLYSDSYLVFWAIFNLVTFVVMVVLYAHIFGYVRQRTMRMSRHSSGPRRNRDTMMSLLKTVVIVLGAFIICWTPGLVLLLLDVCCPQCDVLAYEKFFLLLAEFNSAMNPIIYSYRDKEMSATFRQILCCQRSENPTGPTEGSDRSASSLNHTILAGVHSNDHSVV

In the case of `COc1cc(C(=O)N(CCCc2ccccc2)CCSCC2(C(=O)O)CC2)cc(OC)c1C` [Example 61, 1-[({2-[(3,5-dimethoxy-4-methylbenzoyl)(3-phenylpropyl)amino]ethyl}sulfanyl)methyl]cyclopropane-1-carboxylic Acid], the IC50 in assay [1] is 20 nM; in assay [2], 147 nM; in assay [3], 114 nM. In addition, the Emax in assay [1] is 98%; in assay [2], 92%; in assay [3], 85%.
For `COc1cc(OC)cc(C(=O)N(CCCc2ccccc2)CCCC(C)(C)C(=O)O)c1` [Example 108, 5-[(3,5-dimethoxybenzoyl)(3-phenylpropyl)amino]-2,2-dimethylpentanoic Acid], the concentration for half-maximal inhibition (IC50) in assay [1] amounted to 26 nM; in assay [2] it was 668 nM; in assay [3], 230 nM. Further, the Emax turned out to be 94% in assay [1], 83% in assay [2] and 82% in assay [3].
With `CNS(=O)(=O)NC(=O)CCCCN(CCCc1ccccc1)C(=O)c1cc(OC)cc(OC)c1` [Example 74, 3,5-dimethoxy-N-{5-[(methylsulfamoyl)amino]-5-oxopentyl}-N-(3-phenylpropyl)benzamide], the half-inhibitory concentration (IC50) came to 79 nM in assay [1], 3880 nM in assay [2] and 1180 nM in assay [3]. The Emax in assay [1] is 67%; in assay [2] it was 77%; in assay [3], 63%.
Consider `COc1cc(C(=O)N(CCCCC(=O)O)CCCc2ccc(C)o2)cc(OC)c1C` [Example 138, 5-{(3,5-dimethoxy-4-methylbenzoyl)[3-(5-methylfuran-2-yl)propyl]amino}pentanoic Acid], for which the IC50 in assay [1] worked out at 13 nM; in assay [2], 1010 nM; in assay [3], 201 nM. In addition, the Emax in assay [1] is 89%; in assay [2], 85%; in assay [3], 87%.
Take `COc1cc(C(=O)N(CCCCC(=O)NS(=O)(=O)c2ccccn2)CCCc2ccccc2)cc(OC)c1C` [Example 141, 3,5-dimethoxy-4-methyl-N-{5-oxo-5-[(pyridine-2-sulfonyl)amino]pentyl}-N-(3-phenylpropyl)benzamide]: the figures for the IC50 in assay [1], in assay [2] and in assay [3] were 28 nM, 143 nM and 200 nM, respectively. In addition, the values for the Emax in assay [1], in assay [2] and in assay [3] were 94%, 84% and 76%, respectively.
Turning to `CCOP(=O)(O)CCCCN(CCCc1ccccc1)C(=O)c1cc(OC)cc(OC)c1` [Example 76, ethyl hydrogen {4-[(3,5-dimethoxybenzoyl)(3-phenylpropyl)amino]butyl}phosphonate], the concentration for half-maximal inhibition (IC50) was 48 nM in assay [1], greater than 10000 nM in assay [2] and 5830 nM in assay [3]. In addition, the Emax in assay [1] was found to be 76%; in assay [2], 36%; in assay [3] it was 65%.
For `COc1cc(C(=O)N(CCCc2ccccc2)CCOC(C)(C)C(=O)O)cc(OC)c1C` [Example 55, 2-{2-[(3,5-dimethoxy-4-methylbenzoyl)(3-phenylpropyl)amino]ethoxy}-2-methylpropanoic Acid], the IC50 in assay [1] is 22 nM; in assay [2], 111 nM; in assay [3], 89 nM. The Emax in assay [1] was found to be 100%; in assay [2], 93%; in assay [3], 98%.
For `CNS(=O)(=O)NC(=O)CCCCN(CCCc1ccccc1)C(=O)C1(c2ccc(OC)cc2)CC1` [Example 73, 1-(4-methoxyphenyl)-N-{5-[(methylsulfamoyl)amino]-5-oxopentyl}-N-(3-phenylpropyl)cyclopropane-1-carboxamide], the IC50 in assay [1] was 60 nM; in assay [2], 5160 nM; in assay [3], greater than 30000 nM. The Emax worked out at 65% in assay [1], 79% in assay [2] and 44% in assay [3].
With `COc1cc(C(=O)N(CCCc2ccccc2)CC(=O)NC2(C(=O)O)CCCCC2)cc(OC)c1C` [Example 2, 1-{[N-(3,5-dimethoxy-4-methylbenzoyl)-N-(3-phenylpropyl)glycyl]amino}cyclohexane-1-carboxylic Acid], in assay [1], the IC50 was found to be 114 nM and the Emax was determined as 72%. In assay [3], the IC50 came out at 4830 nM and the Emax was determined as 84%.
As for `COc1cc(C(=O)N(CCCCC(=O)NS(=O)(=O)c2cccnc2)CCCc2ccccc2)cc(OC)c1C` [Example 142, 3,5-dimethoxy-4-methyl-N-{5-oxo-5-[(pyridine-3-sulfonyl)amino]pentyl}-N-(3-phenylpropyl)benzamide], in assay [1], the half-maximal inhibitory concentration (IC50) was found to be 76 nM and the Emax was 88%. In assay [2], it took 831 nM to reach half-maximal inhibition (IC50) and the Emax turned out to be 90%.
Regarding `CCCCC(C)(CCCN(CCCc1ccccc1)C(=O)c1cc(OC)c(C)c(OC)c1)C(=O)O` (stereo not drawn) [Example 97, 2-{3-[(3,5-dimethoxy-4-methylbenzoyl)(3-phenylpropyl)amino]propyl}-2-methylhexanoic Acid], in assay [1], the IC50 was 116 nM and the Emax came to 97%. Besides, in assay [2], the 50% inhibitory concentration (IC50) was 36 nM and the Emax worked out at 94%.
On the same counts, the results for `COc1ccc(C2(C(=O)N(CCCCC(=O)O)CCCc3ccccc3)CC(=O)C2)cc1` [Example 152, 5-{[1-(4-methoxyphenyl)-3-oxocyclobutane-1-carbonyl](3-phenylpropyl)amino}pentanoic Acid] are 85 nM, 88%, 6170 nM and 64%.
For the compound `COc1cc(C(=O)N(CCCCC(=O)NS(=O)(=O)c2ccncc2)CCCc2ccccc2)cc(OC)c1C` [Example 143, 3,5-dimethoxy-4-methyl-N-{5-oxo-5-[(pyridine-4-sulfonyl)amino]pentyl}-N-(3-phenylpropyl)benzamide], the results for the half-maximal inhibitory concentration (IC50) in assay [1] and in assay [2] were 81 nM and 1350 nM, respectively. For the same compound, the Emax in assay [1] was found to be 83%; in assay [2], 66%.
On the same counts, the results for `COc1cc(C(=O)N(CCCc2ccccc2)CCCC(C)C(=O)NS(C)(=O)=O)cc(OC)c1C` (stereo not drawn) [Example 161, N-{5-[(methanesulfonyl)amino]-4-methyl-5-oxopentyl}-3,5-dimethoxy-4-methyl-N-(3-phenylpropyl)benzamide] are 99 nM, 79 nM, 99% and 88%.
With `COc1cc(C(=O)N(CCCCC(=O)O)CCCc2ccccc2)ccc1F` [Example 81, 5-[(4-fluoro-3-methoxybenzoyl)(3-phenylpropyl)amino]pentanoic Acid], in assay [1], the IC50 is greater than 30000 nM and the Emax stood at 31%. In addition, in assay [2], the half-maximal inhibitory concentration (IC50) was greater than 10000 nM and the Emax turned out to be 33%.
Turning to `COc1cc(C(=O)N(CCCc2ccccc2)CCCC(Cc2ccccc2)C(=O)O)cc(OC)c1C` (stereo not drawn) [Example 52, 2-benzyl-5-[(3,5-dimethoxy-4-methylbenzoyl)(3-phenylpropyl)amino]pentanoic Acid], the IC50 in assay [1] amounted to 124 nM; in assay [2], 1010 nM. The results for the Emax in assay [1] and in assay [2] were 87% and 77%, respectively.
As to `CNS(=O)(=O)NC(=O)CCN(CCCc1ccccc1)C(=O)c1cc(OC)c(C)c(OC)c1` [Example 68, 3,5-dimethoxy-4-methyl-N-{3-[(methylsulfamoyl)amino]-3-oxopropyl}-N-(3-phenylpropyl)benzamide], the results for the IC50 in assay [1] and in assay [3] were 902 nM and 13300 nM, respectively. Also, the Emax was found to be 52% in assay [1] and 67% in assay [3].
